# According to patent US9649512B2, “One or more of Vigna marina, Cocos nucifera L. or Terminalia catappa L. extracts for treating wounds, skin disorders and hair loss” (CIMTECH PTY LIMITED, priority 2009, dated 2017):
# Test system: epithelial surface of the backs of 18 month old ovarectomized and sham ovarectomized rats
# Test: Parallel study of moisturiser and antibiotic on epithelial thickness
# Type: in vivo, rat
# From the text: In a parallel study a moisturiser (hydroderm), the topical antibiotic Chloromycetin (chloramphenicol), coconut oil, or coconut oil extracted into ethanol were applied to the epithelial surface of the backs of 18 month old ovarectomized and sham ovarectomized rats and compared to the epithelial surface of an adjacent untreated site. […] The results also indicate that the changes noted in the epithelium are not related to any antimicrobial capacity of the extracts as the changes are not able to be replicated by chloramphenicol.
compound,measurement,value
"O=C(N[C@H](CO)[C@H](O)c1ccc([N+](=O)[O-])cc1)C(Cl)Cl [Chloromycetin (chloramphenicol), chloramphenicol]",thickness of the treated skin compared to the untreated adjacent skin,No significant difference
